As a reminder, the IC50 is the point on the concentration scale where inhibition reaches its midpoint. Lower therefore signals inhibition by little substance.

Data on seven compounds can be found in ChEMBL document CHEMBL1142425, “Bromophenols from the marine red alga Polysiphonia urceolata with DPPH radical scavenging activity” (J Nat Prod, 2008).

The test is described as follows: DPPH radical scavenging activity. The class given is functional. On the technique in general: The DPPH test is a chemical assay of radical scavenging.
Compound `Oc1cc2c(cc1O)-c1c(cc(Br)c(O)c1O)CC2` registered an IC50 of 6.8 µM.

`O=Cc1cc(Br)c(O)c(Br)c1` came in with a half-inhibitory concentration (IC50) of 35.8 µM. Against the preceding compound, the IC50 is about 5.3-fold higher.

Turning to `Cc1cc(C(C)(C)C)c(O)c(C(C)(C)C)c1` [BUTYLATED HYDROXYTOLUENE], the IC50 was 83.8 µM. This IC50 is about 2.3-fold higher than that of the compound before.

`Oc1cc2c(c(Br)c1O)COCc1cc(O)c(O)c(Br)c1-2` returned a half-maximal inhibitory concentration (IC50) of 8.1 µM.

`CO[C@@H]1Oc2c(O)c(Br)cc3c2-c2c1cc(Br)c(O)c2O[C@H]3OC` [URCEOLATOL] came in with an IC50 of 15.1 µM.

In the case of `Oc1cc2c(c(Br)c1O)-c1c(cc(Br)c(O)c1O)CC2`, the midpoint of inhibition, the IC50, lay at 6.1 µM.

In turn, `O=Cc1cc(O)c(O)c(Br)c1` yielded an IC50 of 20.3 µM.
